ChEMBL document CHEMBL3045089, “Synthesis, spectral studies, antimicrobial and insect antifeedant activities of some substituted styryl 4-fluorophenyl ketones” (2011)
Active and inactive are the calls of the source. The rule behind the calls is not given here.

Assays:
Achaea janata [1] = assay: Antifeedant activity against fourth instar larvae of Achaea janata L. on Riclmus cammunls leaves assessed as number of leaf discs consumed in 24 hrs at 200 ppm at 26 +/- 1 degC; assay type: functional
Aspergillus niger = assay: Antifungal activity against Aspergillus niger assessed as inhibition zone at 50 ug/ml measured after 72 hrs by drug dilution method; assay type: functional, organism-based
Penicillium = assay: Antifungal activity against Penicillium assessed as inhibition zone at 50 ug/ml measured after 72 hrs by drug dilution method; assay type: functional, organism-based
Enterococcus faecalis = assay: Antibacterial activity against Enterococcus faecalis assessed as inhibition zone at 250 ug/ml measured after 24 to 45 hrs by disk diffusion method; assay type: functional
Proteus vulgaris = assay: Antibacterial activity against Proteus vulgaris assessed as inhibition zone at 250 ug/ml measured after 24 to 45 hrs by disk diffusion method; assay type: functional
Klebsiella = assay: Antibacterial activity against Klebsiella species assessed as inhibition zone at 250 ug/ml measured after 24 to 45 hrs by disk diffusion method; assay type: functional
Pseudomonas = assay: Antibacterial activity against Pseudomonas assessed as inhibition zone at 250 ug/ml measured after 24 to 45 hrs by disk diffusion method; assay type: functional
Staphylococcus aureus = assay: Antibacterial activity against Staphylococcus aureus assessed as inhibition zone at 250 ug/ml measured after 24 to 45 hrs by disk diffusion method; assay type: functional
Escherichia coli = assay: Antibacterial activity against Escherichia coli assessed as inhibition zone at 250 ug/ml measured after 24 to 45 hrs by disk diffusion method; assay type: functional
Achaea janata [2] = assay: Antifeedant activity against fourth instar larvae of Achaea janata L. on Riclmus cammunls leaves assessed as number of leaf discs consumed in 24 hrs at 150 ppm at 26 +/- 1 degC; assay type: functional
Achaea janata [3] = assay: Antifeedant activity against fourth instar larvae of Achaea janata L. on Riclmus cammunls leaves assessed as number of leaf discs consumed in 24 hrs at 100 ppm at 26 +/- 1 degC; assay type: functional
Achaea janata [4] = assay: Antifeedant activity against fourth instar larvae of Achaea janata L. on Riclmus cammunls leaves assessed as number of leaf discs consumed in 24 hrs at 50 ppm at 26 +/- 1 degC; assay type: functional
Candida albicans = assay: Antifungal activity against Candida albicans assessed as inhibition zone at 250 ug/ml measured after 72 hrs by disk diffusion method; assay type: functional, organism-based

Compound | Activity (Achaea janata [1]) | inhibition (Aspergillus niger) | inhibition (Penicillium) | Activity (Enterococcus faecalis) | Activity (Proteus vulgaris) | Activity (Klebsiella) | Activity (Pseudomonas) | Activity (Staphylococcus aureus) | Activity (Escherichia coli) | Activity (Aspergillus niger) | Activity (Achaea janata [2]) | Activity (Achaea janata [3]) | Activity (Achaea janata [4]) | Activity (Penicillium) | Activity (Candida albicans) | inhibition (Candida albicans)
CN(C)c1ccc(/C=C/C(=O)c2ccc(F)cc2)cc1 | 9 | Active | Active | inactive | 13 mm | 13 mm | 20 mm | 20 mm | 20 mm |  |  |  |  |  |  | 
Cc1ccc(/C=C/C(=O)c2ccc(F)cc2)cc1 | 9 |  |  | inactive | 8 mm | 8 mm | 8 mm | 13 mm | 8 mm | inactive |  |  |  |  |  | 
O=C(/C=C/c1ccc(Cl)cc1)c1ccc(F)cc1 | 0.1 |  |  | inactive | 13 mm | 13 mm | 13 mm | 13 mm | 13 mm | inactive | 0 | 0.05 | 0.1 | inactive |  | 
O=C(/C=C/c1cccc(Cl)c1)c1ccc(F)cc1 | 0.4 |  |  | inactive | 13 mm | 13 mm | 13 mm | 13 mm | 13 mm |  |  |  |  |  | inactive | 
O=C(/C=C/c1ccccc1[N+](=O)[O-])c1ccc(F)cc1 | 12 |  |  | inactive | 13 mm | 13 mm | 13 mm | 13 mm | 13 mm | inactive |  |  |  | inactive | inactive | 
O=C(/C=C/c1cccc([N+](=O)[O-])c1)c1ccc(F)cc1 | 10 |  |  | inactive | 13 mm | 13 mm | 13 mm | 13 mm | 13 mm | inactive |  |  |  | inactive | inactive | 
O=C(/C=C/c1ccc(Br)cc1)c1ccc(F)cc1 | 0.5 | Active | Active | 20 mm | 13 mm | 20 mm | 13 mm | 20 mm | 20 mm |  |  |  |  |  |  | Active
COc1ccc(/C=C/C(=O)c2ccc(F)cc2)cc1 | 9 |  | Active | 20 mm | 13 mm | 13 mm | 13 mm | 13 mm | 13 mm |  |  |  |  |  |  | Active
O=C(/C=C/c1ccccc1)c1ccc(F)cc1 | 8 |  |  | inactive | 8 mm | 8 mm | 8 mm | 13 mm | 8 mm | inactive |  |  |  | inactive | inactive | 
